From ChEMBL document CHEMBL1201862, “PubChem BioAssay data set” (2004)
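Dose response: 5 concentrations. Exposure: 48 h. Format: 96-well plates. Endpoint: linear interpolation; highest concentration if not reached. The concentration for 50% growth inhibition is given as GI50.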 The source made the active and inactive calls. No stated cut-off is given here; in the data, active = GI50 up to about 1.1 µM and inactive = higher.

Columns and labels:
Assay in all cases: NCI anticancer screen, dose series, 48 h
MCF7 = tested on: MCF7
NCI/ADR-RES = tested on: NCI/ADR-RES
HCT-116 = tested on: HCT-116
786-0 = tested on: 786-0
ACHN = tested on: ACHN
SNB-75 = tested on: SNB-75
COLO 205 = tested on: COLO 205
M14 = tested on: M14
MDA-MB-435 = tested on: MDA-MB-435
SF-268 = tested on: SF-268
SK-MEL-2 = tested on: SK-MEL-2
HOP-62 = tested on: HOP-62
K562 = tested on: K562
OVCAR-5 = tested on: OVCAR-5
A498 = tested on: A498
A549 = tested on: A549
SW-620 = tested on: SW-620
OVCAR-4 = tested on: OVCAR-4
DU-145 = tested on: DU-145
CAKI-1 = tested on: CAKI-1

SMILES	GI50 (MCF7)	GI50 (NCI/ADR-RES)	GI50 (HCT-116)	GI50 (786-0)	GI50 (ACHN)	GI50 (SNB-75)	GI50 (COLO 205)	GI50 (M14)	GI50 (MDA-MB-435)	GI50 (SF-268)	GI50 (SK-MEL-2)	GI50 (HOP-62)	GI50 (K562)	GI50 (OVCAR-5)	GI50 (A498)	GI50 (A549)	GI50 (SW-620)	GI50 (OVCAR-4)	GI50 (DU-145)	GI50 (CAKI-1)
NC(=O)CN1CC(C2=C(O)CN(CC(N)=O)C2=O)=CC1=O	> 100 µM (inactive)	> 100 µM (inactive)	> 100 µM (inactive)	> 100 µM (inactive)	> 100 µM (inactive)	> 100 µM (inactive)	> 100 µM (inactive)	> 100 µM (inactive)	> 100 µM (inactive)	> 100 µM (inactive)	> 100 µM (inactive)	> 100 µM (inactive)	> 100 µM (inactive)	> 100 µM (inactive)	> 100 µM (inactive)	> 100 µM (inactive)	> 100 µM (inactive)	> 100 µM (inactive)	> 100 µM (inactive)	> 100 µM (inactive)
COc1ccccc1C(=O)N(Cc1ccccc1)c1ccc(Cl)c(C(=O)OC(C)C)c1	47.8 µM (inactive)	20.2 µM (inactive)	13.7 µM (inactive)	25.9 µM (inactive)	25 µM (inactive)	19.7 µM (inactive)	20.9 µM (inactive)	20.7 µM (inactive)	27 µM (inactive)	42.3 µM (inactive)	14.9 µM (inactive)	18.8 µM (inactive)	6.89 µM (inactive)	> 63.1 µM (inactive)	37.3 µM (inactive)	19.4 µM (inactive)	31.8 µM (inactive)	15.6 µM (inactive)	32.4 µM (inactive)	12.3 µM (inactive)
C[C@]12CC[C@@H]3c4ccc(O)cc4CC[C@H]3[C@@H]1CC[C@@H]2OC(=O)CCc1ccccc1	17.5 µM (inactive)	16.6 µM (inactive)	20.3 µM (inactive)	34 µM (inactive)	18.7 µM (inactive)	15.1 µM (inactive)	19.6 µM (inactive)	17.6 µM (inactive)	13.1 µM (inactive)	17.8 µM (inactive)	15.2 µM (inactive)	22.1 µM (inactive)	11 µM (inactive)	44.4 µM (inactive)	17.4 µM (inactive)	22.3 µM (inactive)	23.3 µM (inactive)	17.5 µM (inactive)	19.5 µM (inactive)	18.4 µM (inactive)
CC(=O)OCC1(C)C(O)CCC2(C)C1CCC1CC3CC12CCC3(O)CO (stereo not given)	> 100 µM (inactive)	37.7 µM (inactive)	76 µM (inactive)	44.4 µM (inactive)	4.46 µM (inactive)	> 100 µM (inactive)	> 100 µM (inactive)	> 100 µM (inactive)	> 100 µM (inactive)	> 80.2 µM (inactive)	> 100 µM (inactive)	36.5 µM (inactive)	> 100 µM (inactive)	> 100 µM (inactive)	0.541 µM (active)	55.1 µM (inactive)	> 95.7 µM (inactive)	> 87.5 µM (inactive)	42.6 µM (inactive)	17.9 µM (inactive)
